In ChEMBL document CHEMBL1126161, “3,4-Dihydroquinolin-2(1H)-ones as combined inhibitors of thromboxane A2 synthase and cAMP phosphodiesterase” (J Med Chem, 1992):

What was measured:
Rattus norvegicus [1] = experiment: Antihypertensive activity in conscious spontaneously hypertensive rat (SHR), percent change in Systolic blood pressure (SBP) at 3 mg/kg peroral dose after 12 hr; format: functional; conditions: route oral
Mus musculus [2] = experiment: Protection against mortality in pulmonary thromboembolism model in mice at 6 mg/kg; format: functional
Rattus norvegicus [3] = experiment: Antihypertensive activity in conscious spontaneously hypertensive rat (SHR), percent change in heart rate (beats/min) after 1 hr at 10 mg/kg peroral dose; format: functional; conditions: route oral
Rattus norvegicus [4] = experiment: Ex vivo inhibition of blood platelet aggregation in rats at 50 mg/kg peroral dose 8 hr; format: functional; conditions: route oral
Rattus norvegicus [5] = experiment: Antihypertensive activity in conscious spontaneously hypertensive rat (SHR), percent change in heart rate (beats/min) after 8 hr at 10 mg/kg peroral dose; format: functional; conditions: route oral
Rattus norvegicus [6] = experiment: Antihypertensive activity in conscious spontaneously hypertensive rat (SHR), percent change in heart rate (beats/min) after 2 hr; format: functional
Thromboxane-A synthase = target: T1, Thromboxane-A synthase (Homo sapiens, UniProt P24557); experiment: Compound was evaluated for the inhibition of human blood platelet thromboxane A2 synthase
T1 sequence (P24557 whole entry): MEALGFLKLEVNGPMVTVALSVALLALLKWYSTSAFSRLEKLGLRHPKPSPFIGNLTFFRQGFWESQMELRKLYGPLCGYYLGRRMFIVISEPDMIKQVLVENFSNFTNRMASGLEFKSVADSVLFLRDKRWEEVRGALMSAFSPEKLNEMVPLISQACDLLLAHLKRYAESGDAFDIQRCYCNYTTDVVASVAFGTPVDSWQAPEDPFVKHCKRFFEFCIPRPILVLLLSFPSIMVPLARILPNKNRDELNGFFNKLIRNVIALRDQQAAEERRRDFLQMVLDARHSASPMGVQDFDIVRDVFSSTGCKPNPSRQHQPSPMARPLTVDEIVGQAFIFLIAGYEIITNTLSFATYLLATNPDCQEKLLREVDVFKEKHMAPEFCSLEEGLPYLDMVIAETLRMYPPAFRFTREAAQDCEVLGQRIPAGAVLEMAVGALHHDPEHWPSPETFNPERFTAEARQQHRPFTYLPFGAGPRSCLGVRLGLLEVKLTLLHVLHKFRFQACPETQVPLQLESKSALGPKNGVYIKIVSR

Rattus norvegicus [7] = experiment: Antihypertensive activity in conscious spontaneously hypertensive rat (SHR), percent change in heart rate (beats/min) after 8 hr at 0.3 mg/kg peroral dose; format: functional; conditions: route oral
Mus musculus [8] = experiment: Protection against mortality in pulmonary thromboembolism model in mice at 1 mg/kg; format: functional
[9] = target: T2, Thromboxane-A synthase (Homo sapiens) (UniProt P24557); experiment: Effect of TXA2 synthase inhibitor (compound) on serum TXB2 level in rats at 50 mg/kg po, after 2 hr; format: functional, organism-based; parameters: dose 50 mg/kg; conditions: Rattus norvegicus, target entry is the homologue from another species
T2 sequence (whole entry): T1 sequence (P24557 whole entry)

Homo sapiens [10] = species: Homo sapiens; experiment: Inhibition of ADP-induced aggregation of human PRP in the absence of pig aortal microsomes (PAM); format: functional
Mus musculus [11] = experiment: Time course of protection against mortality in a pulmonary thromboembolism model in mice after -1 hr at 10 mg/kg; format: functional
Rattus norvegicus [12] = experiment: Antihypertensive activity in conscious spontaneously hypertensive rat (SHR), percent change in heart rate (beats/min) after 4 hr at 3 mg/kg peroral dose; format: functional; conditions: route oral
Homo sapiens [13] = species: Homo sapiens; experiment: Inhibition of [14C]arachidonic acid induced TXB2 formation at 5 uM (Control TXB2 = 14.9+/-2.5)
Rattus norvegicus [14] = experiment: Antihypertensive activity in conscious spontaneously hypertensive rat (SHR), percent change in Systolic blood pressure (SBP) at 1 mg/kg peroral dose after 8 hr; format: functional; conditions: route oral

With `O=C1CCc2cc(/C=C/n3ccnc3)ccc2N1` the “Change in systolic BP” value (Rattus norvegicus [1]) was -3%, the survival at 6 mg/kg (Mus musculus [2]) was 50% and the “Change in heart rate” value (Rattus norvegicus [3]) was 22%. The inhibition in vivo at 50 mg/kg (Rattus norvegicus [4]) was 96.5%, the “Change in heart rate” value (Rattus norvegicus [5]) was 16% and the “Change in heart rate” value (Rattus norvegicus [6]) was 11%. The IC50 (Thromboxane-A synthase) was 1.2 µM, the “Change in heart rate” value (Rattus norvegicus [7]) was -8% and the survival at 1 mg/kg (Mus musculus [8]) was 10%. It also gave an inhibition [9] of 97%, an IC50 (Homo sapiens [10]) of 5.6 µM and a survival at 10 mg/kg (Mus musculus [11]) of 50%. For the same compound, the “Change in heart rate” value (Rattus norvegicus [12]) was 20%, the TXB2 level at 5 µM (Homo sapiens [13]) was 12.3% and the “Change in systolic BP” value (Rattus norvegicus [14]) was -9%.
